Assay results: ChEMBL document CHEMBL4028802, “DILIrank: the largest reference drug list ranked by the risk for developing drug-induced liver injury in humans” (Drug Discov Today, 2016)

Experiments:
[1] = species on record: Homo sapiens; test: Liver toxicity in human assessed as induction of drug-induced liver injury by measuring severity class index
[2] = species on record: Homo sapiens; test: Liver toxicity in human assessed as induction of drug-induced liver injury by measuring verified drug-induced liver injury concern status
Wherever DILI severity class is given: key of the grades not given here.

With `CN(C/C=C/C#CC(C)(C)C)Cc1cccc2ccccc12` [TERBINAFINE] the DILI_severity_class [1] was 8 and the DILI_Concern [2] was “Most-Dili-Concern”.
In the case of `CC(C)CN(C[C@@H](O)[C@H](Cc1ccccc1)NC(=O)O[C@H]1CO[C@H]2OCC[C@H]21)S(=O)(=O)c1ccc(N)cc1`, the DILI_severity_class [1] is reported as 8 and the DILI_Concern [2] is reported as “Most-Dili-Concern”.
In the case of `CNCCCC1c2ccccc2C=Cc2ccccc21` [PROTRIPTYLINE], the DILI_severity_class [1] is reported as 0 and the DILI_Concern [2] is reported as “No-Dili-Concern”.
`CCCc1nc2c(C)cc(-c3nc4ccccc4n3C)cc2n1Cc1ccc(-c2ccccc2C(=O)O)cc1` was tested, and the DILI_severity_class [1] was 3 and the DILI_Concern [2] was “Less-Dili-Concern”.
With `C[C@@H]1[C@H](O)[C@@H](C)/C=C/C=C/C=C/C=C/C=C/C=C/C=C/[C@H](O[C@@H]2O[C@H](C)[C@@H](O)[C@H](N)[C@@H]2O)C[C@@H]2O[C@](O)(C[C@@H](O)C[C@@H](O)[C@H](O)CC[C@@H](O)C[C@@H](O)CC(=O)O[C@H]1C)C[C@H](O)[C@H]2C(=O)O` [AMPHOTERICIN B] the DILI_severity_class [1] was 3 and the DILI_Concern [2] was “Less-Dili-Concern”.
In the case of `C1CCC(C(CC2CCCCN2)C2CCCCC2)CC1` (stereo unspecified) [PERHEXILINE], the DILI_severity_class [1] is reported as 8 and the DILI_Concern [2] is reported as “Most-Dili-Concern”.
In the case of `C[C@]12CC[C@@H]3c4ccc(O)cc4CC[C@H]3[C@@H]1CCC2=O` [ESTRONE], the DILI_severity_class [1] is reported as 2 and the DILI_Concern [2] is reported as “Ambiguous-Dili-Concern”.
With `N[C@@H](C(=O)N[C@@H]1C(=O)N2C(C(=O)O)=C(Cl)CS[C@H]12)c1ccccc1` [CEFACLOR ANHYDROUS] the DILI_severity_class [1] was 3 and the DILI_Concern [2] was “Less-Dili-Concern”.
`N[C@@H]1[C@H]2CN(c3nc4c(cc3F)c(=O)c(C(=O)O)cn4-c3ccc(F)cc3F)C[C@@H]12` [TROVAFLOXACIN] was tested, and the DILI_severity_class [1] was 8 and the DILI_Concern [2] was “Most-Dili-Concern”.
With `O=C1Nc2ccc(Cl)cc2C(c2ccccc2Cl)=NC1O` (stereo unspecified) [LORAZEPAM] the DILI_severity_class [1] was 3 and the DILI_Concern [2] was “Ambiguous-Dili-Concern”.
For `O=C(O)c1cc(/N=N/c2ccc(S(=O)(=O)Nc3ccccn3)cc2)ccc1O` [SULFASALAZINE], the DILI_severity_class [1] was 5 and the DILI_Concern [2] was “Most-Dili-Concern”.
With `CCC[C@@H]1C[C@@H](C(=O)N[C@@H]([C@H]2O[C@H](SC)[C@H](O)[C@@H](O)[C@H]2O)[C@H](C)Cl)N(C)C1` [CLINDAMYCIN] the DILI_severity_class [1] was 3 and the DILI_Concern [2] was “Less-Dili-Concern”.
For `CNC(=O)Oc1ccc2c(c1)[C@]1(C)CCN(C)[C@@H]1N2C` [PHYSOSTIGMINE], the DILI_severity_class [1] was 0 and the DILI_Concern [2] was “No-Dili-Concern”.
`C[C@H]1[C@H](c2ccccc2)OCCN1C` [PHENDIMETRAZINE] was tested, and the DILI_severity_class [1] was 0 and the DILI_Concern [2] was “No-Dili-Concern”.
With `Cc1ccccc1C(=O)Nc1ccc(C(=O)N2CCCC(O)c3cc(Cl)ccc32)c(C)c1` (stereo unspecified) [TOLVAPTAN] the DILI_severity_class [1] was 8 and the DILI_Concern [2] was “Most-Dili-Concern”.
For `Cc1nnc(C(=O)NC(C)(C)c2nc(C(=O)NCc3ccc(F)cc3)c(O)c(=O)n2C)o1`, the DILI_severity_class [1] was 7 and the DILI_Concern [2] was “Most-Dili-Concern”.
For `CN1c2c(nc(N)[nH]c2=O)NC[C@@H]1CNc1ccc(C(=O)N[C@@H](CCC(=O)[O-])C(=O)[O-])cc1.[Ca+2]` [LEVOMEFOLATE CALCIUM], the DILI_severity_class [1] was 0 and the DILI_Concern [2] was “No-Dili-Concern”.
For `COc1cc2nc(N(C)CCCNC(=O)C3CCCO3)nc(N)c2cc1OC` (stereo unspecified) [ALFUZOSIN], the DILI_severity_class [1] was 5 and the DILI_Concern [2] was “Less-Dili-Concern”.
In the case of `CC(=O)OCC(CCn1cnc2cnc(N)nc21)COC(C)=O` [FAMCICLOVIR], the DILI_severity_class [1] is reported as 3 and the DILI_Concern [2] is reported as “Ambiguous-Dili-Concern”.
For `CC[C@@H](CO)NC(=O)[C@@H]1C=C2c3cccc4[nH]cc(c34)C[C@H]2N(C)C1` [METHYLERGONOVINE], the DILI_severity_class [1] was 0 and the DILI_Concern [2] was “No-Dili-Concern”.
With `C[C@@H](O[C@H]1OCCN(Cc2nc(O)n(P(=O)(O)O)n2)[C@H]1c1ccc(F)cc1)c1cc(C(F)(F)F)cc(C(F)(F)F)c1` [FOSAPREPITANT] the DILI_severity_class [1] was 3 and the DILI_Concern [2] was “Ambiguous-Dili-Concern”.
In the case of `CC(C)CN(C[C@@H](OP(=O)(O)O)[C@H](Cc1ccccc1)NC(=O)O[C@H]1CCOC1)S(=O)(=O)c1ccc(N)cc1` [FOSAMPRENAVIR], the DILI_severity_class [1] is reported as 3 and the DILI_Concern [2] is reported as “Ambiguous-Dili-Concern”.
In the case of `CC1(C)S[C@@H]2[C@H](NC(=O)C(C(=O)O)c3ccccc3)C(=O)N2[C@H]1C(=O)O` (stereo partly specified) [CARBENICILLIN], the DILI_severity_class [1] is reported as 3 and the DILI_Concern [2] is reported as “Less-Dili-Concern”.
In the case of `O[C@@H](c1cc(C(F)(F)F)nc2c(C(F)(F)F)cccc12)[C@H]1CCCCN1` [(S,R)-MEFLOQUINE], the DILI_severity_class [1] is reported as 7 and the DILI_Concern [2] is reported as “Less-Dili-Concern”.
For `CC(=O)N[C@@H](CS)C(=O)O` [ACETYLCYSTEINE], the DILI_severity_class [1] was 0 and the DILI_Concern [2] was “No-Dili-Concern”.
`NCC1O[C@H](O[C@H]2[C@@H](O)[C@H](O[C@H]3[C@H](O)[C@@H](N)C[C@@H](N)[C@@H]3O[C@H]3O[C@H](CN)[C@@H](O)[C@H](O)[C@H]3N)O[C@@H]2CO)[C@H](N)[C@@H](O)[C@@H]1O` (stereo partly specified) was tested, and the DILI_severity_class [1] was 0 and the DILI_Concern [2] was “No-Dili-Concern”.
For `CC[N+](CC)(CCNC(=O)C(=O)NCC[N+](CC)(CC)Cc1ccccc1Cl)Cc1ccccc1Cl` [AMBENONIUM], the DILI_severity_class [1] was 0 and the DILI_Concern [2] was “No-Dili-Concern”.
`COC(=O)CCc1ccc(OCC(O)CNC(C)C)cc1` (stereo unspecified) [ESMOLOL] was tested, and the DILI_severity_class [1] was 0 and the DILI_Concern [2] was “No-Dili-Concern”.
`CCC1=C[C@@H]2CN(C1)Cc1c([nH]c3ccccc13)[C@@](C(=O)OC)(c1cc3c(cc1OC)N(C)[C@H]1[C@@](O)(C(=O)OC)[C@H](OC(C)=O)[C@]4(CC)C=CCN5CC[C@]31[C@@H]54)C2` [VINORELBINE] was tested, and the DILI_severity_class [1] was 3 and the DILI_Concern [2] was “Ambiguous-Dili-Concern”.
`CCc1oc2ccccc2c1C(=O)c1cc(Br)c(O)c(Br)c1` [BENZBROMARONE] was tested, and the DILI_severity_class [1] was 8 and the DILI_Concern [2] was “Most-Dili-Concern”.
For `Nc1ccn([C@@H]2CS[C@H](CO)O2)c(=O)n1` [LAMIVUDINE], the DILI_severity_class [1] was 3 and the DILI_Concern [2] was “Less-Dili-Concern”.
`CN1CCC(=C2c3ccccc3C=Cc3ccccc32)CC1` [CYPROHEPTADINE] was tested, and the DILI_severity_class [1] was 7 and the DILI_Concern [2] was “Less-Dili-Concern”.
For `CCCCC1=NC2(CCCC2)C(=O)N1Cc1ccc(-c2ccccc2-c2nnn[nH]2)cc1` [IRBESARTAN], the DILI_severity_class [1] was 5 and the DILI_Concern [2] was “Less-Dili-Concern”.
In the case of `CCC(=O)NCC[C@@H]1CCc2ccc3c(c21)CCO3` [RAMELTEON], the DILI_severity_class [1] is reported as 0 and the DILI_Concern [2] is reported as “No-Dili-Concern”.
For `O=C1CCc2ccc(OCCCCN3CCN(c4cccc(Cl)c4Cl)CC3)cc2N1` [ARIPIPRAZOLE], the DILI_severity_class [1] was 5 and the DILI_Concern [2] was “Ambiguous-Dili-Concern”.
`C[C@]12CCC(=O)C=C1CC[C@H]1[C@@H]3CC[C@](O)(C(=O)CO)[C@@]3(C)C[C@H](O)[C@@]12F` [FLUDROCORTISONE] was tested, and the DILI_severity_class [1] was 0 and the DILI_Concern [2] was “No-Dili-Concern”.
`CCc1c2c(nc3ccc(OC(=O)N4CCC(N5CCCCC5)CC4)cc13)-c1cc3c(c(=O)n1C2)COC(=O)[C@]3(O)CC` [IRINOTECAN] was tested, and the DILI_severity_class [1] was 3 and the DILI_Concern [2] was “Less-Dili-Concern”.
For `COCCCOc1cc(C[C@@H](C[C@H](N)[C@@H](O)C[C@H](C(=O)NCC(C)(C)C(N)=O)C(C)C)C(C)C)ccc1OC`, the DILI_severity_class [1] was 0 and the DILI_Concern [2] was “Less-Dili-Concern”.
With `CC(=O)Nc1c(I)c(NC(C)=O)c(I)c(C(=O)O)c1I` [DIATRIZOIC ACID] the DILI_severity_class [1] was 0 and the DILI_Concern [2] was “No-Dili-Concern”.
With `CNC(=O)c1cnn(-c2nc(N)c3ncn([C@@H]4O[C@H](CO)[C@@H](O)[C@H]4O)c3n2)c1` [REGADENOSON ANHYDROUS] the DILI_severity_class [1] was 0 and the DILI_Concern [2] was “No-Dili-Concern”.
For `CCOC(=O)C1=C[C@@H](OC(CC)CC)[C@H](NC(C)=O)[C@@H](N)C1` [OSELTAMIVIR], the DILI_severity_class [1] was 3 and the DILI_Concern [2] was “Ambiguous-Dili-Concern”.
With `CCCCN1C[C@H](O)[C@@H](O)[C@H](O)[C@H]1CO` the DILI_severity_class [1] was 0 and the DILI_Concern [2] was “No-Dili-Concern”.
`CC(=O)/N=c1/sc(S(N)(=O)=O)nn1C` [METHAZOLAMIDE] was tested, and the DILI_severity_class [1] was 7 and the DILI_Concern [2] was “Less-Dili-Concern”.
With `Cc1ccccc1C(OCCN(C)C)c1ccccc1` (stereo unspecified) [ORPHENADRINE] the DILI_severity_class [1] was 0 and the DILI_Concern [2] was “No-Dili-Concern”.
`CCC1=C(C)CN(C(=O)NCCc2ccc(S(=O)(=O)NC(=O)N[C@H]3CC[C@H](C)CC3)cc2)C1=O` [GLIMEPIRIDE] was tested, and the DILI_severity_class [1] was 7 and the DILI_Concern [2] was “Less-Dili-Concern”.
For `CC(C)NCC(O)COc1ccc(COCCOC(C)C)cc1` (stereo unspecified) [BISOPROLOL], the DILI_severity_class [1] was 3 and the DILI_Concern [2] was “Ambiguous-Dili-Concern”.
With `NC(=O)CC[C@H](N)C(=O)O` [GLUTAMINE] the DILI_severity_class [1] was 3 and the DILI_Concern [2] was “Ambiguous-Dili-Concern”.
With `O=C1CN=C(c2ccccc2Cl)c2cc([N+](=O)[O-])ccc2N1` [CLONAZEPAM] the DILI_severity_class [1] was 3 and the DILI_Concern [2] was “Less-Dili-Concern”.
`CCOC(=O)[C@H](CCc1ccccc1)N[C@H]1CCc2ccccc2N(CC(=O)O)C1=O` [BENAZEPRIL] was tested, and the DILI_severity_class [1] was 4 and the DILI_Concern [2] was “Less-Dili-Concern”.
For `N=C(N)N` [GUANIDINE], the DILI_severity_class [1] was 3 and the DILI_Concern [2] was “Ambiguous-Dili-Concern”.
In the case of `CCCCCCC(C)(C)c1cc(O)c2c(c1)OC(C)(C)C1CCC(=O)CC21` (stereo unspecified) [NABILONE], the DILI_severity_class [1] is reported as 0 and the DILI_Concern [2] is reported as “No-Dili-Concern”.
In the case of `O=C1CC[C@@]2(O)[C@H]3Cc4ccc(O)c5c4[C@@]2(CCN3CC2CC2)[C@H]1O5` [NALTREXONE], the DILI_severity_class [1] is reported as 3 and the DILI_Concern [2] is reported as “Ambiguous-Dili-Concern”.
`COc1cc(C)c(/C=C/C(C)=C/C=C/C(C)=C/C(=O)O)c(C)c1C` [ACITRETIN] was tested, and the DILI_severity_class [1] was 5 and the DILI_Concern [2] was “Most-Dili-Concern”.
`NC(CO)(CO)CO` [TROMETHAMINE] was tested, and the DILI_severity_class [1] was 6 and the DILI_Concern [2] was “Ambiguous-Dili-Concern”.
SECRETIN was tested, and the DILI_severity_class [1] was 0 and the DILI_Concern [2] was “No-Dili-Concern”.
With `O=C1Nc2ccc(Cl)cc2[C@@](C#CC2CC2)(C(F)(F)F)O1` [EFAVIRENZ] the DILI_severity_class [1] was 7 and the DILI_Concern [2] was “Most-Dili-Concern”.
With `CC(C)(C(=O)c1cccnc1)c1cccnc1` [METYRAPONE] the DILI_severity_class [1] was 0 and the DILI_Concern [2] was “No-Dili-Concern”.
For `CCOC(=O)[C@H](CCc1ccccc1)N[C@@H](C)C(=O)N1[C@H](C(=O)O)C[C@@H]2CCC[C@@H]21`, the DILI_severity_class [1] was 7 and the DILI_Concern [2] was “Less-Dili-Concern”.
